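Exposure lasted 48 hours, with cells grown in 96-well plates and compounds tested at five concentrations. TGI marks complete inhibition of growth.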 Square brackets hold non-standard residues; d marks the D form. Peptide text beside a SMILES is read from it. Phe(4-NO2) = N[CH](Cc1ccc([N+](=O)[O-])cc1)C(=O)O
Columns and labels:
Experiment in all cases: NCI-60 cell line screen, 48 h
[1] = system: SK-OV-3 ovarian
[2] = system: HL-60(TB) leukemia
[3] = system: MDA-MB-231 breast
[4] = system: A549 NSCLC
[5] = system: RXF 393 renal
[6] = system: IGROV1 ovarian
[7] = system: MALME-3M melanoma
[8] = system: EKVX NSCLC
[9] = system: MDA-N
[10] = system: 786-0 renal
[11] = system: CCRF-CEM leukemia
[12] = system: OVCAR-3 ovarian
[13] = system: NCI-H522 lung

Structure (SMILES) | TGI [1] | TGI [2] | TGI [3] | TGI [4] | TGI [5] | TGI [6] | TGI [7] | TGI [8] | TGI [9] | TGI [10] | TGI [11] | TGI [12] | TGI [13]
CNC(=O)OCC1=C(COC(=O)NC)C(C)N(c2ccccc2)C1 (centres undefined) | > 100 µM | 47 µM | > 100 µM | > 100 µM | > 100 µM | 98.4 µM | 97.4 µM | > 100 µM | > 100 µM | > 100 µM | > 100 µM | 92.7 µM | 
COC(=O)CCC(NC(=O)C(CCC(=O)OC)NC(=O)C(CCC(=O)OC)NC(=O)C(CCC(=O)OC)NC(=O)C(CCC(=O)OC)NC(=O)C(Cc1ccc([N+](=O)[O-])cc1)NC(=O)C(CCC(=O)OC)NC(=O)C(CCC(=O)OC)NC(=O)C(CCC(=O)OC)NC(=O)C(CCC(=O)OC)NC(=O)C(CCC(=O)OC)NC(C)=O)C(N)=O (centres undefined) (Ac-E(OMe)E(OMe)E(OMe)E(OMe)E(OMe)[Phe(4-NO2)]E(OMe)E(OMe)E(OMe)E(OMe)E(OMe)-NH2; configuration not given here) | > 100 µM |  | > 100 µM | > 100 µM | > 100 µM | > 100 µM | > 100 µM | > 100 µM | > 100 µM | > 100 µM | > 100 µM |  | > 100 µM
C=COC(=O)N1C2CCCC(Cl)(C(C)=O)C1CC2 (centres undefined) | > 100 µM |  | > 100 µM | > 100 µM |  | > 100 µM | > 100 µM | > 100 µM | > 100 µM | > 100 µM | > 100 µM | > 100 µM | > 100 µM
Cc1nn(C(=O)c2ccncc2)c2c1C(c1ccc([N+](=O)[O-])cc1)SC(N)=N2 (centres undefined) | > 100 µM | > 100 µM | > 100 µM | > 100 µM | > 100 µM | > 100 µM | > 100 µM | > 100 µM | > 100 µM | > 100 µM | > 100 µM | > 100 µM | 
Nc1ncnc2c1cnn2COCC(O)CO (centres undefined) | > 100 µM |  | > 100 µM | > 100 µM | > 100 µM | > 100 µM | > 100 µM | > 100 µM | > 100 µM | > 100 µM | > 100 µM | > 100 µM | > 100 µM
O=C(c1cccc2cc(O)ccc12)c1cn(CCN2CCOCC2)c2ccccc12 |  | 55.5 µM | 45.3 µM |  | 43.6 µM | 43.4 µM | 56.3 µM | 64.8 µM | 58.3 µM | 42.3 µM | 34.4 µM |  | 61.4 µM
C=CCN(c1cc(OC)c2c(c1[N+](=O)[O-])C(C)(SC)C(=O)N2)S(C)(=O)=O (centres undefined) | > 100 µM |  | > 100 µM | > 100 µM |  | > 100 µM | > 100 µM |  | > 100 µM | > 100 µM |  |  | > 100 µM
COc1ccc(S(=O)(=O)Nc2ccc(-c3csc(N4C(=O)/C(=C/c5cccs5)N=C4c4ccccc4)n3)cc2)cc1Cl | > 100 µM | 87.4 µM | > 100 µM | > 100 µM | > 100 µM | > 100 µM | 90.5 µM |  | > 100 µM | > 100 µM |  | > 100 µM | 62.8 µM
S=C(S)N1CCN(c2ccccc2)CC1 |  | 64.4 µM | > 100 µM | > 100 µM | > 100 µM | > 100 µM | > 100 µM | > 100 µM | > 100 µM | > 100 µM |  | > 100 µM | > 100 µM
Cc1ccc2c(=O)c(C(=O)NNC(=S)NC3CCCCC3)c[nH]c2n1 |  | > 100 µM | > 100 µM | > 100 µM | > 100 µM | > 100 µM | > 100 µM | > 100 µM | > 100 µM | > 100 µM | > 100 µM | > 100 µM | > 100 µM
CCCCN1CCC(O)(c2cc(C(=O)O)[nH]c2-c2cc(C)no2)C1=O (centres undefined) | > 100 µM |  | > 100 µM | > 100 µM | > 100 µM | > 100 µM | > 100 µM | > 100 µM | > 100 µM | > 100 µM |  | > 100 µM | > 100 µM
N#CC1=C(S)N(C2OC(CO)C(O)C(O)C2O)C(c2ccccc2)=CC1c1cccs1 (centres undefined) |  | > 100 µM | 63.5 µM | 45.6 µM | 40 µM | 45.7 µM | 38.7 µM |  | 30.9 µM | 35.7 µM | > 100 µM | 80.2 µM | 47.5 µM
C[C@]12CC/C(=N\O)C=C1CC[C@@H]1[C@@H]2CC[C@]2(C)C(=N/O)/C(=C/c3ccncc3)C[C@@H]12 | > 100 µM | 5.09 µM | > 100 µM | > 100 µM | > 100 µM | > 100 µM | > 100 µM | > 100 µM | > 100 µM | > 100 µM |  | 72.3 µM | 99.2 µM
CO/N=C(\C(=O)[N-][n+]1cnn(CC(=O)O)c1)c1csc(N)n1 | > 10 µM | > 10 µM | > 10 µM | > 10 µM |  | > 10 µM |  | > 10 µM | > 10 µM | > 10 µM | > 10 µM |  | 
COc1ccc2c(c1)C(=O)[C@@](Nc1ccc(C=O)cc1)(OC)[C@@](OC)(c1ccc([N+](=O)[O-])cc1)O2 | > 10 µM | > 10 µM | > 10 µM | > 10 µM | > 10 µM | > 10 µM | > 10 µM | > 10 µM | > 10 µM | > 10 µM | > 10 µM | > 10 µM | 
Nc1nc(Cc2ccccc2)nc(Cc2ccccc2)c1-c1ccccc1 |  | 60.5 µM | 49.1 µM | > 100 µM | > 100 µM | > 100 µM | 50.2 µM | > 100 µM | 38.8 µM | 70.5 µM |  | 37.2 µM | 46.1 µM
COc1ccc(/C=C2/SC(c3c(O)ccc4ccccc34)N(NC(=O)CCCCCCCCC(=O)NN3C(=O)/C(=C\c4ccc(OC)c(OC)c4)SC3c3c(O)ccc4ccccc34)C2=O)cc1OC (centres undefined) | > 52.9 µM |  | > 91.7 µM | > 21.4 µM | > 79.7 µM | 10.7 µM | 51.4 µM | > 100 µM | > 100 µM | > 20.5 µM |  | > 58.5 µM | > 100 µM
O=C1c2cc([N+](=O)[O-])sc2C(=O)c2cc([N+](=O)[O-])sc21 | 25.2 µM |  | 5.66 µM | 49.6 µM | 15.5 µM | 3.07 µM | 2.38 µM | 7.78 µM | 4.72 µM | 6.78 µM | > 19.8 µM | 6.65 µM | 3.02 µM

Source: PubChem BioAssay (NCI)
